Measured values published in the NIST ThermoML archive (doi:10.1021/je050085p).
Numbers after ± are expanded uncertainties.

Assays:
[1] = 101.33 kPa, Liquid
[2] = refractive index (Na D-line) (dimensionless); conditions: 101.33 kPa, Liquid, Standard Abbe refractometry
[3] = xn = mol fraction of the nth substance listed; conditions: 308.15 K, 101 kPa, Liquid
[4] = refractive index (Na D-line) (dimensionless); xn = mol fraction of the nth substance listed; conditions: 308.15 K, 101 kPa, Liquid, Standard Abbe refractometry
[5] = excess molar enthalpy (molar enthalpy of mixing); xn = mol fraction of the nth substance listed; conditions: 308.15 K, 101 kPa, Liquid, Flow calorimetry

OCCc1ccccc1 [2-phenylethanol]
Conditions | mass density, [1] [kg/m3] | refractive index, [2]
298.15 K | – | 1.5321 ± 0.0007
308.15 K | 1008.75 ± 0.56 | 1.5269 ± 0.0007

OCCc1ccccc1 [2-phenylethanol] + COc1ccccc1
Conditions | excess molar enthalpy [kcal/mol] | mass density [kg/m3] | refractive index
[3], x2 = 0.0521 | – | 1007.44 ± 0.53 | –
[3], x2 = 0.1223 | – | 1005.63 ± 0.53 | –
[3], x2 = 0.2121 | – | 1003.26 ± 0.52 | –
[3], x2 = 0.3153 | – | 1000.43 ± 0.52 | –
[3], x2 = 0.4172 | – | 997.53 ± 0.52 | –
[3], x2 = 0.5245 | – | 994.36 ± 0.52 | –
[3], x2 = 0.617 | – | 991.55 ± 0.52 | –
[3], x2 = 0.7479 | – | 987.5 ± 0.52 | –
[3], x2 = 0.7673 | – | 986.9 ± 0.52 | –
[3], x2 = 0.811 | – | 985.5 ± 0.5 | –
[3], x2 = 0.9073 | – | 982.55 ± 0.52 | –
[3], x2 = 0.9513 | – | 981.2 ± 0.52 | –
[4], x2 = 0.0521 | – | – | 1.526 ± 0.0007
[4], x2 = 0.1223 | – | – | 1.5248 ± 0.0007
[4], x2 = 0.2121 | – | – | 1.5233 ± 0.0007
[4], x2 = 0.3153 | – | – | 1.5217 ± 0.0007
[4], x2 = 0.4172 | – | – | 1.52 ± 0.0007
[4], x2 = 0.5245 | – | – | 1.5182 ± 0.0007
[4], x2 = 0.617 | – | – | 1.5165 ± 0.0007
[4], x2 = 0.7479 | – | – | 1.514 ± 0.0007
[4], x2 = 0.7673 | – | – | 1.5136 ± 0.0007
[4], x2 = 0.811 | – | – | 1.5127 ± 0.0007
[4], x2 = 0.9073 | – | – | 1.5106 ± 0.0007
[4], x2 = 0.9513 | – | – | 1.5096 ± 0.0007
[5], x2 = 0.0437 | 0.0227 ± 0.000621 | – | –
[5], x2 = 0.0838 | 0.0478 ± 0.00112 | – | –
[5], x2 = 0.1206 | 0.0728 ± 0.00163 | – | –
[5], x2 = 0.1546 | 0.0948 ± 0.00208 | – | –
[5], x2 = 0.2153 | 0.134 ± 0.00287 | – | –
[5], x2 = 0.2678 | 0.164 ± 0.00359 | – | –
[5], x2 = 0.3543 | 0.207 ± 0.00454 | – | –
[5], x2 = 0.4224 | 0.228 ± 0.00478 | – | –
[5], x2 = 0.5232 | 0.25 ± 0.00526 | – | –
[5], x2 = 0.6221 | 0.269 ± 0.00574 | – | –
[5], x2 = 0.687 | 0.273 ± 0.00598 | – | –
[5], x2 = 0.767 | 0.267 ± 0.00574 | – | –
[5], x2 = 0.8145 | 0.251 ± 0.00526 | – | –
[5], x2 = 0.8682 | 0.217 ± 0.00454 | – | –
[5], x2 = 0.9006 | 0.185 ± 0.00406 | – | –
[5], x2 = 0.9294 | 0.147 ± 0.00311 | – | –
[5], x2 = 0.9634 | 0.0864 ± 0.00203 | – | –

OCCCc1ccccc1 [3-phenyl-1-propanol]
Conditions | mass density, [1] [kg/m3] | refractive index, [2]
298.15 K | – | 1.5259 ± 0.0006
308.15 K | 991.01 ± 0.52 | 1.5214 ± 0.0006

OCCCc1ccccc1 [3-phenyl-1-propanol] + CCOc1ccccc1
Conditions | excess molar enthalpy [kcal/mol] | mass density [kg/m3] | refractive index
[3], x2 = 0.0636 | – | 988.77 ± 0.52 | –
[3], x2 = 0.1067 | – | 987.22 ± 0.52 | –
[3], x2 = 0.2164 | – | 983.2 ± 0.52 | –
[3], x2 = 0.31 | – | 979.65 ± 0.52 | –
[3], x2 = 0.417 | – | 975.46 ± 0.52 | –
[3], x2 = 0.515 | – | 971.51 ± 0.52 | –
[3], x2 = 0.6168 | – | 967.29 ± 0.52 | –
[3], x2 = 0.7074 | – | 963.43 ± 0.52 | –
[3], x2 = 0.7975 | – | 959.53 ± 0.52 | –
[3], x2 = 0.8977 | – | 955.2 ± 0.5 | –
[3], x2 = 0.9488 | – | 952.99 ± 0.52 | –
[3], x2 = 0.9596 | – | 952.53 ± 0.52 | –
[4], x2 = 0.0636 | – | – | 1.5203 ± 0.0007
[4], x2 = 0.1067 | – | – | 1.5194 ± 0.0007
[4], x2 = 0.2164 | – | – | 1.5173 ± 0.0007
[4], x2 = 0.31 | – | – | 1.5153 ± 0.0007
[4], x2 = 0.417 | – | – | 1.513 ± 0.0007
[4], x2 = 0.515 | – | – | 1.5109 ± 0.0007
[4], x2 = 0.6168 | – | – | 1.5086 ± 0.0007
[4], x2 = 0.7074 | – | – | 1.5066 ± 0.0007
[4], x2 = 0.7975 | – | – | 1.5045 ± 0.0007
[4], x2 = 0.8977 | – | – | 1.5023 ± 0.0007
[4], x2 = 0.9488 | – | – | 1.5012 ± 0.0007
[4], x2 = 0.9596 | – | – | 1.501 ± 0.0007
[5], x2 = 0.0427 | 0.0329 ± 0.000837 | – | –
[5], x2 = 0.0818 | 0.0631 ± 0.00143 | – | –
[5], x2 = 0.118 | 0.088 ± 0.00196 | – | –
[5], x2 = 0.1513 | 0.114 ± 0.00239 | – | –
[5], x2 = 0.211 | 0.146 ± 0.00311 | – | –
[5], x2 = 0.2629 | 0.167 ± 0.00359 | – | –
[5], x2 = 0.3485 | 0.193 ± 0.00406 | – | –
[5], x2 = 0.4162 | 0.212 ± 0.00454 | – | –
[5], x2 = 0.5169 | 0.236 ± 0.00502 | – | –
[5], x2 = 0.6162 | 0.257 ± 0.0055 | – | –
[5], x2 = 0.6815 | 0.267 ± 0.00574 | – | –
[5], x2 = 0.7625 | 0.267 ± 0.00574 | – | –
[5], x2 = 0.8106 | 0.255 ± 0.0055 | – | –
[5], x2 = 0.8596 | 0.225 ± 0.00478 | – | –
[5], x2 = 0.8954 | 0.194 ± 0.0043 | – | –
[5], x2 = 0.9277 | 0.152 ± 0.00335 | – | –
[5], x2 = 0.9625 | 0.0896 ± 0.00208 | – | –

OCCCc1ccccc1 [3-phenyl-1-propanol] + COc1ccccc1
Conditions | excess molar enthalpy [kcal/mol] | mass density [kg/m3] | refractive index
[3], x2 = 0.0579 | – | 990.46 ± 0.52 | –
[3], x2 = 0.1201 | – | 989.91 ± 0.52 | –
[3], x2 = 0.2636 | – | 988.55 ± 0.52 | –
[3], x2 = 0.384 | – | 987.28 ± 0.52 | –
[3], x2 = 0.4475 | – | 986.57 ± 0.52 | –
[3], x2 = 0.5551 | – | 985.27 ± 0.52 | –
[3], x2 = 0.6495 | – | 984.07 ± 0.52 | –
[3], x2 = 0.7477 | – | 982.78 ± 0.52 | –
[3], x2 = 0.8274 | – | 981.73 ± 0.52 | –
[3], x2 = 0.8652 | – | 981.26 ± 0.52 | –
[3], x2 = 0.913 | – | 980.67 ± 0.52 | –
[3], x2 = 0.9588 | – | 980.14 ± 0.52 | –
[4], x2 = 0.0579 | – | – | 1.5208 ± 0.0007
[4], x2 = 0.1201 | – | – | 1.5201 ± 0.0007
[4], x2 = 0.2636 | – | – | 1.5186 ± 0.0007
[4], x2 = 0.384 | – | – | 1.5173 ± 0.0007
[4], x2 = 0.4475 | – | – | 1.5166 ± 0.0007
[4], x2 = 0.5551 | – | – | 1.5154 ± 0.0007
[4], x2 = 0.6495 | – | – | 1.5142 ± 0.0007
[4], x2 = 0.7477 | – | – | 1.5129 ± 0.0007
[4], x2 = 0.8274 | – | – | 1.5118 ± 0.0007
[4], x2 = 0.8652 | – | – | 1.5113 ± 0.0007
[4], x2 = 0.913 | – | – | 1.5108 ± 0.0007
[4], x2 = 0.9588 | – | – | 1.5101 ± 0.0007
[5], x2 = 0.0493 | 0.0303 ± 0.000765 | – | –
[5], x2 = 0.094 | 0.059 ± 0.00134 | – | –
[5], x2 = 0.1347 | 0.0863 ± 0.00191 | – | –
[5], x2 = 0.1719 | 0.107 ± 0.00234 | – | –
[5], x2 = 0.2374 | 0.145 ± 0.00311 | – | –
[5], x2 = 0.2934 | 0.171 ± 0.00359 | – | –
[5], x2 = 0.3838 | 0.205 ± 0.0043 | – | –
[5], x2 = 0.4536 | 0.224 ± 0.00478 | – | –
[5], x2 = 0.5547 | 0.246 ± 0.00526 | – | –
[5], x2 = 0.6514 | 0.261 ± 0.0055 | – | –
[5], x2 = 0.7136 | 0.265 ± 0.00574 | – | –
[5], x2 = 0.7889 | 0.258 ± 0.0055 | – | –
[5], x2 = 0.8328 | 0.239 ± 0.00502 | – | –
[5], x2 = 0.877 | 0.207 ± 0.00454 | – | –
[5], x2 = 0.9088 | 0.175 ± 0.00382 | – | –
[5], x2 = 0.9373 | 0.133 ± 0.00287 | – | –
[5], x2 = 0.9676 | 0.0777 ± 0.00186 | – | –

COc1ccccc1 [anisole]
Conditions | mass density, [1] [kg/m3] | refractive index, [2]
298.15 K | 989.3 ± 0.52 | 1.5153 ± 0.0007
308.15 K | 979.71 ± 0.52 | 1.5095 ± 0.0007
